Data on 10 molecules can be found in PMC7187165, “Structure‐Based Design, Synthesis, and Biological Evaluation of Triazole‐Based smHDAC8 Inhibitors” (Chemmedchem, 2020).

Data set [1] has as its target T1, smHDAC8 (Schistosoma mansoni, UniProt A5H660).
T1 construct: made in house; host or cells: E. coli
T1 sequence (A5H660 1-440): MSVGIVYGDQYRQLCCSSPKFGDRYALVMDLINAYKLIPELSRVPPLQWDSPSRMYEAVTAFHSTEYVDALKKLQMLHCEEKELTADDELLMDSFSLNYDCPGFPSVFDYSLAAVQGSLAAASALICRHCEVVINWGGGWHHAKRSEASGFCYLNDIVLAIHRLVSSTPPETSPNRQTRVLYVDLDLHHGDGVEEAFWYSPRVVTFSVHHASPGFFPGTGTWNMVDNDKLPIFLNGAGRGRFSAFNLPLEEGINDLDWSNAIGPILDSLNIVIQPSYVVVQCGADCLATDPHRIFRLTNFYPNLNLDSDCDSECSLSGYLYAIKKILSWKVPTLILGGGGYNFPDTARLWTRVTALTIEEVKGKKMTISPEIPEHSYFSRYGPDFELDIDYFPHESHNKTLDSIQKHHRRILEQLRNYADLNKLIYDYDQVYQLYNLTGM
Nature of the data set: biochemical. Format: biochemical. Conditions: for inhibition at 10 µM: read-out: smHDAC8 (% inhibition, Fluor de Lys); for inhibition at 5 µM / inhibition at 50 µM: pretest; for inhibition at 5 µM: read-out: smHDAC8 % inhibition @ 5 μM (Fluor de Lys); for inhibition at 50 µM: read-out: smHDAC8 % inhibition @ 50 μM (Fluor de Lys).

For the molecule `O=C(NO)c1cn(Cc2ccc(F)cc2)nn1` [Compound 2 d], the inhibition at 10 µM in data set [1] (@ 10 μM, pretest n=1) was 36.1%.
Take `Cl.O=C(NO)c1cn(-c2ccc(C#Cc3ccc(CN4CCOCC4)cc3)cc2)nn1` [Compound 2 i]: the melting point is 239 °C (dec.). Moreover, the inhibition at 10 µM in data set [1] (@ 10 μM, pretest n=1) was determined as 48%.
For `O=C(NO)c1cn(-c2ccc(C#CC#Cc3ccccc3)cc2)nn1` [Compound 2 j, N ‐Hydroxy‐1‐[4‐(4‐phenylbuta‐1,3‐diynyl)phenyl]‐1H‐1,2,3‐triazole‐4‐carboxamide], in data set [1] (@ 10 μM, pretest n=1), the “smHDAC8 (% inhibition, Fluor de Lys)” value was “nearly no inhibitory activity” and the inhibition at 10 µM came out at 6.8%.
In the case of `O=C(NO)c1cn(-c2ccccc2O)nn1` [Compound 12], in data set [1], the inhibition at 5 µM came to 19.5% and the inhibition at 50 µM turned out to be 63.5%.
For `O=C(NO)c1cn(-c2cc(Cl)ccc2O)nn1` [Compound 13, 1‐(5‐Chloro‐2‐hydroxyphenyl)‐N‐hydroxy‐1H‐1,2,3‐triazole‐4‐carboxamide] the same measures were 14.5% and 67.3%.
In the case of `O=C(NO)c1cn(-c2cc(Cl)ccc2OCc2ccc3ccccc3c2)nn1` [Compound 16], the inhibition at 50 µM in data set [1] came to 43.5%.
Still for that read-out and setting: in the case of `O=C(NO)c1cn(-c2cc(Cl)ccc2OCc2ccc(I)cc2)nn1` [Compound 17, 1‐{5‐Chloro‐2‐[(4‐iodobenzyl)oxy]phenyl}‐N‐hydroxy‐1H‐1,2,3‐triazole‐4‐carboxamide] it was 21%.
Regarding `Cc1ccc(Oc2ccc(Cl)cc2-n2cc(C(=O)NO)nn2)cc1` [Compound 20], in data set [1], the inhibition at 5 µM is 49.8% and the inhibition at 50 µM stood at 91.1%.
For `O=C(NO)c1cn(-c2ccccc2Oc2ccccc2)nn1` [Compound 28] the same measures were 49.1% and 87.9%.
Turning to `O=C(NO)c1cn(-c2ccccc2C(=O)c2ccccc2)nn1` [Compound 32, 1‐(2‐Benzoylphenyl)‐N‐hydroxy‐1H‐1,2,3‐triazole‐4‐carboxamide], in data set [1], the inhibition at 5 µM was 23.4% and the inhibition at 50 µM was 75.4%.

In general, inhibition refers to the drop in the measured response relative to a control, in per cent. One may read the melting point as the temperature, or range, at which the solid turns liquid.
